Test results from patent US5980899A, “Identification of peptides that stimulate hepatitis C virus specific cytotoxic T cells” (The United States of America as represented by the …, priority 1992, dated 1999).

Tests used:
[1] = tested on: 18Neo (BALB/c 3T3 fibroblast, H-2^d) target cells
T cells = test: Response to P17 stimulation in a chronically infected chimpanzee; type: cell-based; conditions: one chronically infected chimpanzee
HCV = conditions: chronic HCV liver disease; cited from earlier work

Row | Molecule | toxicity that might affect activity in CTL stimulation or utility in vivo [1] | cytotoxicity in response to stimulation (T cells) | patients who respond (HCV) | responders who relapse after treatment is stopped (HCV)
1 | CSCC[C@H](N)C(=O)N[C@@H](CO)C(=O)N[C@@H](Cc1ccc(O)cc1)C(=O)N[C@@H](CO)C(=O)N[C@@H](Cc1c[nH]c2ccccc12)C(=O)N[C@H](C(=O)NCC(=O)N[C@@H](C)C(=O)N[C@@H](CC(C)C)C(=O)N[C@H](C(=O)N[C@H](C(=O)N1CCC[C@H]1C(=O)N[C@@H](CS)C(=O)N[C@@H](C)C(=O)N[C@@H](C)C(=O)N[C@@H](CCC(=O)O)C(=O)O)[C@@H](C)O)C(C)C)[C@@H](C)O [P17, MSYSWTGALVTPCAAE] | did not show any toxicity | not cytotoxicity |  | 
2 | α-interferon |  |  | less than half | approximately 50%
